pIC50: −log10 of the molar value.

For orientation: pIC50 means the negative decadic logarithm of the IC50, by convention in mol/L.

In the test the target is T1, full length active recombinant SYK enzyme (Homo sapiens, UniProt P43405).
T1 construct: full length active recombinant SYK enzyme (Millipore, Calif.); purchased Millipore
The experiment in a line: Inhibition of Syk tyrosine phosphorylation activity (LANCE TR-FRET kinase assay). It is filed as biochemical. In a few lines: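 Full-length active recombinant SYK (1 nM) phosphorylated biotinylated SYK-specific peptide (550 nM) with 100 μM ATP in 50 mM Tris pH 7.5, 5 mM MgCl2, 1 mM DTT, 3% DMSO, 1 h at room temperature. EDTA quench with Eu-anti-phosphotyrosine and SA-APC, 1 h TR-FRET read; IC50 by non-linear regression.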
A general note: TR-FRET usually uses a lanthanide donor and a delayed reading to cut background.
As to `CC(C)[C@@H](Nc1nc(Nc2ccc3[nH]ncc3c2)c(C(N)=O)c(=O)[nH]1)C(N)=O` [Example 26, (R)-4-(1H-indazol-5-ylamino)-2-(1-amino-3-methyl-1-oxobutan-2-ylamino)-6-oxo-1,6-dihydropyrimidine-5-carboxamide], the pIC50 is over 9.00.

Take `Cc1cc(C)cc(Nc2nc(N[C@H](C)C(N)=O)[nH]c(=O)c2C(N)=O)c1` [Example 56, (R)-2-(1-amino-1-oxopropan-2-ylamino)-4-(3,5-dimethylphenylamino)-6-oxo-1,6-dihydropyrimidine-5-carboxamide]: the pIC50 was under 6.00.

With `CC[C@@H](Nc1nc(Nc2ccc(OCCOC)cc2)c(C(N)=O)c(=O)[nH]1)C(N)=O` [Example 94, (R)-2-(1-amino-1-oxobutan-2-ylamino)-4-(4-(2-methoxyethoxy)phenylamino)-6-oxo-1,6-dihydropyrimidine-5-carboxamide], the negative logarithm of the IC50 (pIC50) was 8.00 to 9.00.

Take `CC(C)[C@@H](Nc1nc(Nc2ccc3ncccc3c2)c(C(N)=O)c(=O)[nH]1)C(N)=O` [Example 20, (R)-2-(1-amino-3-methyl-1-oxobutan-2-ylamino)-6-oxo-4-(quinolin-6-ylamino)-1,6-dihydropyrimidine-5-carboxamide]: the pIC50 was 8.00 to 9.00.

As to `CC(C)C[C@@H](Nc1nc(Nc2cccc(OC(F)F)c2)c(C(N)=O)c(=O)[nH]1)C(N)=O` [Example 87, (R)-2-(1-amino-4-methyl-1-oxopentan-2-ylamino)-4-(3-(difluoromethoxy)phenylamino)-6-oxo-1,6-dihydropyrimidine-5-carboxamide], the pIC50 was 8.00 to 9.00.

With `CC[C@@H](Nc1nc(Nc2ccc(-n3ccnc3)cc2)c(C(N)=O)c(=O)[nH]1)C(N)=O` [Example 116, (R)-2-(1-amino-1-oxobutan-2-ylamino)-4-(4-(1H-imidazol-1-yl)phenylamino)-6-oxo-1,6-dihydropyrimidine-5-carboxamide], the pIC50 was 8.00 to 9.00.

In the case of `COc1ccc(Nc2nc(N[C@H](CC(C)C)C(N)=O)[nH]c(=O)c2C(N)=O)cn1` [Example 110], the negative logarithm of the IC50 (pIC50) is 8.00 to 9.00.

With `CC(C)C[C@@H](Nc1nc(Nc2cnn(C)c2)c(C(N)=O)c(=O)[nH]1)C(N)=O` [Example 114, (R)-2-(1-amino-4-methyl-1-oxopentan-2-ylamino)-4-(1-methyl-1H-pyrazol-4-ylamino)-6-oxo-1,6-dihydropyrimidine-5-carboxamide], the negative logarithm of the IC50 (pIC50) is 8.00 to 9.00.

For the molecule `COc1cccc(Nc2nc(N[C@H](CC(C)C)C(N)=O)[nH]c(=O)c2C(N)=O)c1` [Example 77, (R)-2-(1-amino-4-methyl-1-oxopentan-2-ylamino)-4-(3-methoxyphenylamino)-6-oxo-1,6-dihydropyrimidine-5-carboxamide], the pIC50 was 8.00 to 9.00.

Consider `COc1nc(N[C@H](CC(C)C)C(N)=O)nc(Nc2cc(C)cc(C)c2)c1C(N)=O` [Example 67, (R)-2-(1-amino-4-methyl-1-oxopentan-2-ylamino)-4-(3,5-dimethylphenylamino)-6-methoxypyrimidine-5-carboxamide], for which the negative logarithm of the IC50 (pIC50) was 6.00 to 7.00.

With `CC[C@@H](Nc1nc(Nc2ccc(OC(F)(F)F)cc2)c(C(N)=O)c(=O)[nH]1)C(N)=O` [Example 92, (R)-2-(1-amino-1-oxobutan-2-ylamino)-4-(4-(trifluoromethoxy)phenylamino)-6-oxo-1,6-dihydropyrimidine-5-carboxamide], the negative logarithm of the IC50 (pIC50) is 8.00 to 9.00.

Regarding `CC[C@@H](Nc1nc(Nc2cccc(-c3ncccc3F)c2)c(C(N)=O)c(=O)[nH]1)C(N)=O` [Example 81, (R)-2-(1-amino-1-oxobutan-2-ylamino)-6-oxo-4-(3-(3-fluoropyridin-2-yl)phenylamino)-1,6-dihydropyrimidine-5-carboxamide], the pIC50 is 8.00 to 9.00.

Consider `CC[C@@H](Nc1nc(Nc2ccc3c(c2)OCCO3)c(C(N)=O)c(=O)[nH]1)C(N)=O` [Example 86, (R)-2-(1-amino-1-oxobutan-2-ylamino)-4-(2,3-dihydrobenzo[b][1,4]dioxin-6-ylamino)-6-oxo-1,6-dihydropyrimidine-5-carboxamide], for which the pIC50 is 8.00 to 9.00.

For `CC(C)C[C@@H](Nc1nc(Nc2ccc(-c3cccnc3)cc2)c(C(N)=O)c(=O)[nH]1)C(N)=O` [Example 106, (R)-2-(1-amino-4-methyl-1-oxopentan-2-ylamino)-6-oxo-4-(4-(pyridin-3-yl)phenylamino)-1,6-dihydropyrimidine-5-carboxamide], the pIC50 is 8.00 to 9.00.

Regarding `CC[C@@H](Nc1nc(Nc2ccc3c(c2)OCO3)c(C(N)=O)c(=O)[nH]1)C(N)=O` [Example 76, (R)-2-(1-amino-1-oxobutan-2-ylamino)-4-(benzo[d][1,3]dioxol-5-ylamino)-6-oxo-1,6-dihydropyrimidine-5-carboxamide], the negative-log IC50 (pIC50) was 8.00 to 9.00.

As to `NC(=O)c1c(Nc2cccc(-c3ncccn3)c2)nc(N[C@@H]2CCCC[C@@H]2N)[nH]c1=O` [Example 38], the pIC50 is 8.00 to 9.00.

Regarding `CC[C@@H](Nc1nc(Nc2ccc3ncccc3c2)c(C(N)=O)c(=O)[nH]1)C(N)=O` [Example 21, (R)-2-(1-amino-1-oxobutan-2-ylamino)-6-oxo-4-(quinolin-6-ylamino)-1,6-dihydropyrimidine-5-carboxamide], the negative logarithm of the IC50 (pIC50) was over 9.00.

Take `CC(=O)N(C)c1ccc(Nc2nc(NC3CC3)c(C(N)=O)c(=O)[nH]2)cc1` [Example 58, 4-(cyclopropylamino)-2-(4-(N-methylacetamido)phenylamino)-6-oxo-1,6-dihydropyrimidine-5-carboxamide]: the pIC50 is under 6.00.

Turning to `CC(C)C[C@@H](Nc1nc(Nc2cccc(-c3ncccn3)c2)c(C(N)=O)c(=O)[nH]1)C(N)=O` [Example 27, (R)-2-(1-amino-4-methyl-1-oxopentan-2-ylamino)-6-oxo-4-(3-(pyrimidin-2-yl)phenylamino)-1,6-dihydropyrimidine-5-carboxamide], the pIC50 was 8.00 to 9.00.

In the case of `Cc1cc(C)cc(Nc2nc(N[C@H](CC(C)C)C(N)=O)[nH]c(=O)c2C(N)=O)c1` [Example 55, (R)-2-(1-amino-4-methyl-1-oxopentan-2-ylamino)-4-(3,5-dimethylphenylamino)-6-oxo-1,6-dihydropyrimidine-5-carboxamide], the negative logarithm of the IC50 (pIC50) is under 6.00.

Consider `NC(=O)c1c(Nc2cccc(-n3nccn3)c2)nc(N[C@@H]2CCCNC2)[nH]c1=O` [Example 37], for which the pIC50 was over 9.00.

As to `CC[C@@H](Nc1nc(Nc2cccc(OC(F)(F)F)c2)c(C(N)=O)c(=O)[nH]1)C(N)=O` [Example 102, (R)-2-(1-amino-1-oxobutan-2-ylamino)-4-(3-(trifluoromethoxy)phenylamino)-6-oxo-1,6-dihydropyrimidine-5-carboxamide], the negative logarithm of the IC50 (pIC50) is 8.00 to 9.00.

With `CC(C)[C@@H](Nc1nc(Nc2cccc(-n3cccn3)c2)c(C(N)=O)c(=O)[nH]1)C(N)=O` [Example 33], the pIC50 is 8.00 to 9.00.

On to `COc1nc(N[C@@H](C(N)=O)C(C)C)nc(Nc2cc(C)cc(C)c2)c1C(N)=O` [Example 1, (R)-2-(1-amino-3-methyl-1-oxobutan-2-ylamino)-4-(3,5-dimethylphenylamino)-6-methoxypyrimidine-5-carboxamide], for which the pIC50 is 7.00 to 8.00.

As for `NC(=O)c1c(NC2CCC2)nc(Nc2ccc(S(N)(=O)=O)cc2)[nH]c1=O` [Example 45, 4-(cyclobutylamino)-6-oxo-2-(4-sulfamoylphenylamino)-1,6-dihydropyrimidine-5-carboxamide], the pIC50 is under 6.00.

In the case of `COc1nc(NCC(N)=O)nc(Nc2cc(C)cc(C)c2)c1C(N)=O` [Example 50, 2-(2-amino-2-oxoethylamino)-4-(3,5-dimethylphenylamino)-6-methoxypyrimidine-5-carboxamide], the negative-log IC50 (pIC50) was 6.00 to 7.00.

For the molecule `NC(=O)c1c(O)nc(NC2CCCCC2N)nc1NC1CC1` (stereo not shown) [Example 48, 2-(2-aminocyclohexylamino)-4-(cyclopropylamino)-6-hydroxypyrimidine-5-carboxamide], the pIC50 was under 6.00.

For `CC(C)[C@@H](Nc1nc(Nc2cccc(-n3nccn3)c2)c(C(N)=O)c(=O)[nH]1)C(N)=O` [Example 6, (R)-4-(3-(2H-1,2,3-triazol-2-yl)phenylamino)-2-(1-amino-3-methyl-1-oxobutan-2-ylamino)-6-oxo-1,6-dihydropyrimidine-5-carboxamide], the negative-log IC50 (pIC50) is 8.00 to 9.00.

In the case of `CC[C@@H](Nc1nc(Nc2cnc3ccccc3c2)c(C(N)=O)c(=O)[nH]1)C(N)=O` [Example 109, (R)-2-(1-amino-1-oxobutan-2-ylamino)-6-oxo-4-(quinolin-3-ylamino)-1,6-dihydropyrimidine-5-carboxamide], the pIC50 is over 9.00.

As for `CC(C)C[C@@H](Nc1nc(Nc2ccc3c(c2)OCCO3)c(C(N)=O)c(=O)[nH]1)C(N)=O` [Example 78, (R)-2-(1-amino-4-methyl-1-oxopentan-2-ylamino)-4-(2,3-dihydrobenzo[b][1,4]dioxin-6-ylamino)-6-oxo-1,6-dihydropyrimidine-5-carboxamide], the negative logarithm of the IC50 (pIC50) is 8.00 to 9.00.

As to `CC[C@@H](Nc1nc(Nc2cccc(-n3ccnc3)c2)c(C(N)=O)c(=O)[nH]1)C(N)=O` [Example 119, (R)-2-(1-amino-1-oxobutan-2-ylamino)-4-(3-(1H-imidazol-1-yl)phenylamino)-6-oxo-1,6-dihydropyrimidine-5-carboxamide], the negative logarithm of the IC50 (pIC50) was 8.00 to 9.00.

In the case of `CC[C@@H](Nc1nc(Nc2ccc3cn[nH]c3c2)c(C(N)=O)c(=O)[nH]1)C(N)=O` [Example 36], the pIC50 is over 9.00.

For `COc1nc(Nc2ccc(N3CCN(C(C)=O)CC3)cc2)nc(Nc2cccc(C)c2)c1C(N)=O` [Example 74, 4-(m-toluidino)-2-(4-(4-acetylpiperazin-1-yl)phenylamino)-6-methoxypyrimidine-5-carboxamide], the pIC50 was under 6.00.

With `COCCOc1cccc(Nc2nc(N[C@H](CC(C)C)C(N)=O)[nH]c(=O)c2C(N)=O)c1` [Example 98, (R)-2-(1-amino-4-methyl-1-oxopentan-2-ylamino)-4-(3-(2-methoxyethoxy)phenylamino)-6-oxo-1,6-dihydropyrimidine-5-carboxamide], the pIC50 was 8.00 to 9.00.

The values above are taken from patent publication US20130317029A1 (PORTOLA PHARMACEUTICALS, INC., priority 2010, published 2013).
